{"source": "patent US20220378706A1", "about": "“PHARMACEUTICAL COMPOSITION COMPRISING PDE9 INHIBITOR” (Eisai R&D Management Co., Ltd., priority 2017, published 2022)", "origin": "cited, not measured here", "tested_on": "CSF cGMP", "settings": "healthy subjects, 40 mg; cited from earlier work"}
{"compound": "C[C@@H]1CN(Cc2ncccn2)C[C@H]1c1nc2c(cnn2C2CCOCC2)c(=O)[nH]1", "note": "[PF 04447943]", "values": [{"measurement": "CSF cGMP elevation", "result": "CSF cGMP elevation was demonstrated"}]}
